Experimental data: PMC5154303, “Flavonol and imidazole derivatives block HPV16 E6 activities and reactivate apoptotic pathways in HPV^+ cells” (Cell Death & Disease, 2016)

How the values were obtained:
Type in all cases: cell-based, human
[1] = system: p53; experiment: p53 ELISA in C33A cells; details: C33A cells (HPV−, mutant p53), with 4 μg/ml mitomycin C, 24 h
Procedure: (§1) Figure 6 Treatment with myricetin and spinacine (5) increases cellular levels of caspase 8 and p53. (a) SiHa cells (1 × 10^6 per well) were seeded into a six-well plate and allowed to incubate overnight. The indicated concentrations of myricetin and spinacine were added, and then cells were incubated for 24 h. Cells were then washed in 1 × PBS and then harvested, and the resulting level of caspase 8 was measured by immunoblot. (b) SiHa and C33A cells (1 × 10^6 per well) were seeded into a six-well plate and allowed to incubate overnight. In all, 200 μM of myricetin and 100 μM spinacine were added together with 4 μg/ml mitomycin C and incubated for 24 h. The resulting level of p53 was measured by enzyme-linked immunosorbent assay, and the level of p53 found in untreated cells was set at 100%. Experiments were performed in triplicate, and error bars indicate the S.D.
The p53 ELISA was performed as described previously,[26] with some modifications. Antibodies secreted by clone pAb122 (hybridoma obtained from ATCC, antibodies purified from the culture medium using protein-A Sepharose) were used as monoclonal capture antibodies. […] The average and S.D. of the replicates (a minimum of three) were calculated, normalized to the control, and used to prepare the graph.

[2] = system: UM-SCC47-TC-Clone 3; experiment: TRAIL-induced cell death in HPV+ HNSCC line UM-SCC47-TC-Clone 3 (MTT); details: HPV+ 47CL3, 40 μM compound 4 h, 50 ng/ml TRAIL + cycloheximide
Procedure: (§2) Figure 7 Myricetin and spinacine (5) can re-sensitize HPV^+, but not HPV^−, head and neck cancer cell lines to treatment with TRAIL. (a) Both HPV^− and HPV^+ HN cancer cell lines display resistance to TRAIL treatment. (b) HPV^− (UMSCC 29 and SCC 84) and (c) HPV^+ (UMSCC 47, UPCI-SCC90-UP-Clone 35, and UM-SCC47-TC-Clone 3) head and neck cancer cell lines (2 × 10^4 cells per well) were seeded into 96-well plates and allowed to incubate overnight, and then cells were pretreated with myricetin (0–200 μM) or spinacine (0–100 μM) for 4 h. […] Cell viability was measured by the MTT assay, and the viability of cells untreated with small molecules was set at 100%. Experiments were performed in triplicate, and error bars indicate the S.D.
(§3) The extracellular domain of human TRAIL was cloned into a pTriEx expression plasmid containing N-terminal Hisx6 tag. His-TRAIL was expressed in the E. coli BL-21 pLys strain and purified as previously described. Doxorubicin and cisplatin were purchased from Sigma. His-TRAIL, doxorubicin, and cisplatin were diluted in PBS to the desired concentration before using. […] All experiments were repeated at least three times (three biological replicates, carried out on different days), with each experimental group measured in triplicate within each of these individual experiments. […]

[3] = system: UMSCC47; experiment: TRAIL-induced cell death in HPV+ HNSCC line UMSCC47 (MTT); details: HPV+ #47, 40 μM compound 4 h, 50 ng/ml TRAIL + cycloheximide
Procedure: as §2, §3

[4] = system: caspase 8; experiment: Caspase 8 level in SiHa cells by immunoblot; details: 24 h
Procedure: as §1
Cells (1 × 10^6) were collected and washed with PBS. All liquid was removed by centrifugation at 3000 r.p.m. for 5 min at 4 °C. […] Signals were measured using the Odyssey Infrared Imaging system (LI-COR Biosciences) and expressed in relative light units.

[5] = system: SCC84; experiment: TRAIL-induced cell death in HPV− HNSCC line SCC84 (MTT); details: HPV− #84, myricetin 0–200 μM or spinacine 0–100 μM, 50 ng/ml TRAIL
Procedure: as §2, §3

| Structure (SMILES) | change in p53 levels ([1]; 100 μM) | enhancement of TRAIL-induced cell death [2] [%] | enhancement of TRAIL-induced cell death [3] | caspase 8 level ([4]; spinacine at 50 to 200 μM) | response to TRAIL in presence and absence of compound [5] | change in p53 levels ([1]; 200 μM) | caspase 8 level ([4]; myricetin at 100 and 200 μM) |
| --- | --- | --- | --- | --- | --- | --- | --- |
| O=C(O)C1Cc2[nH]cnc2CN1 (stereo not shown) [Spinacine (5), 4,5,6,7-tetrahydro-1H-imidazo[4,5–c]pyridine-6-carboxylic acid] | no significant change | ~60 | up to 50% | increase | resistant | – | – |
| O=c1c(O)c(-c2cc(O)c(O)c(O)c2)oc2cc(O)cc(O)c12 [Myricetin, myricetin, reference compound] | – | 70 | 40% | – | resistant | no significant change | increase |
